According to paper PMC5130295, “Structural basis for the disaggregase activity and regulation of Hsp104” (eLife, 2016):
Blank lines part the entries; values can stand above or below the compound they belong to.

What was measured:
[1] = molecular target: T1, CtHsp104 (Thermochaetoides thermophila, UniProt G0S4G4, D295A/E296A); assay: X-ray crystal structure, […] Å; format: binding; details: ADP bound in AAA1 and AAA2 active sites; incubated with ADP and AlF3, 3 mM each; pH 5.8
T1 construct: gene CTHT_0022720; full-length, synthetic gene, pET21a, C-terminal His6 tag, E. coli; NTD not visible in the crystal structure

[2] = molecular target: T2, ScHsp104 (Saccharomyces cerevisiae, UniProt P31539); assay: coupled ATPase assay (pyruvate kinase / lactate dehydrogenase); format: biochemical; details: 5 mM MgCl2; varying ATP; Hill fit
T2 construct: gene HSP104; cloned from yeast genomic DNA, pET21a, C-terminal His6 tag, E. coli

[3] = molecular target: T3, CtHsp104 (Thermochaetoides thermophila, UniProt G0S4G4); assay: as above; format: biochemical; details: 5 mM MgCl2; varying ATP; Hill fit
T3 construct: gene CTHT_0022720; full-length, synthetic gene, pET21a, C-terminal His6 tag, E. coli; NTD not visible in the crystal structure

[4] = molecular target: CtHsp104 catalytic inactive double Walker A mutant (Chaetomium thermophilum); assay: SEC; SEC profiles with elution volumes of marker proteins
[5] = molecular target: CtHsp104 double Walker B mutant (Chaetomium thermophilum); assay: as above
[6] = molecular target: Hsp104 disaggregase from Chaetomium thermophilum, wild type (Chaetomium thermophilum); assay: as above

T1 sequence (G0S4G4 entry or part of it D295A/E296A): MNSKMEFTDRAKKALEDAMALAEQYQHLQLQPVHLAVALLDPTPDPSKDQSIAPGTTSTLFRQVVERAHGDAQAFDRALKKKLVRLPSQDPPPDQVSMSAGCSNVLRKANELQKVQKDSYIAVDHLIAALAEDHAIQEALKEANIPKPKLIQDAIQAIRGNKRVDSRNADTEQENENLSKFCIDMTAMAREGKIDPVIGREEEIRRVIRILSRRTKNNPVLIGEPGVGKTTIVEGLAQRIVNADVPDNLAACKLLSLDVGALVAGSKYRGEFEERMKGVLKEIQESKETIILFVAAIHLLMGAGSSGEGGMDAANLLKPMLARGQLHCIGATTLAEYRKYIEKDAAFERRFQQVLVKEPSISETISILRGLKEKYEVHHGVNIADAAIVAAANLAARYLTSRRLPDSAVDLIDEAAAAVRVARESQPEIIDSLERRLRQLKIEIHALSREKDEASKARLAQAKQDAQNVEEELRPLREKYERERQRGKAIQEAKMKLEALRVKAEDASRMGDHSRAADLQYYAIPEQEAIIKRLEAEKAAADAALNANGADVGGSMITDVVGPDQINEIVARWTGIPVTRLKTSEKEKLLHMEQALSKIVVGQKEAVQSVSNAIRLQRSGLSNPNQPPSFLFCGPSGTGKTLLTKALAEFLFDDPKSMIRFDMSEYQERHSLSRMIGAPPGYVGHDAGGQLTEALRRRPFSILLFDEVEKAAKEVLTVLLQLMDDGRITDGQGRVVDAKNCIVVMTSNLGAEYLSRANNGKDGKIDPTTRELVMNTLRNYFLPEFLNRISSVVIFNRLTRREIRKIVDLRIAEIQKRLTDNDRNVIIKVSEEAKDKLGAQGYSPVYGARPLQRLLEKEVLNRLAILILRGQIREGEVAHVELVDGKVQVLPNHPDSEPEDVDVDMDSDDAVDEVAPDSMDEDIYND
T3 sequence (G0S4G4 entry or part of it): as the sequence (G0S4G4 entry or part of it D295A/E296A) above, with A295D, A296E counted along it
T2 sequence (P31539 whole entry): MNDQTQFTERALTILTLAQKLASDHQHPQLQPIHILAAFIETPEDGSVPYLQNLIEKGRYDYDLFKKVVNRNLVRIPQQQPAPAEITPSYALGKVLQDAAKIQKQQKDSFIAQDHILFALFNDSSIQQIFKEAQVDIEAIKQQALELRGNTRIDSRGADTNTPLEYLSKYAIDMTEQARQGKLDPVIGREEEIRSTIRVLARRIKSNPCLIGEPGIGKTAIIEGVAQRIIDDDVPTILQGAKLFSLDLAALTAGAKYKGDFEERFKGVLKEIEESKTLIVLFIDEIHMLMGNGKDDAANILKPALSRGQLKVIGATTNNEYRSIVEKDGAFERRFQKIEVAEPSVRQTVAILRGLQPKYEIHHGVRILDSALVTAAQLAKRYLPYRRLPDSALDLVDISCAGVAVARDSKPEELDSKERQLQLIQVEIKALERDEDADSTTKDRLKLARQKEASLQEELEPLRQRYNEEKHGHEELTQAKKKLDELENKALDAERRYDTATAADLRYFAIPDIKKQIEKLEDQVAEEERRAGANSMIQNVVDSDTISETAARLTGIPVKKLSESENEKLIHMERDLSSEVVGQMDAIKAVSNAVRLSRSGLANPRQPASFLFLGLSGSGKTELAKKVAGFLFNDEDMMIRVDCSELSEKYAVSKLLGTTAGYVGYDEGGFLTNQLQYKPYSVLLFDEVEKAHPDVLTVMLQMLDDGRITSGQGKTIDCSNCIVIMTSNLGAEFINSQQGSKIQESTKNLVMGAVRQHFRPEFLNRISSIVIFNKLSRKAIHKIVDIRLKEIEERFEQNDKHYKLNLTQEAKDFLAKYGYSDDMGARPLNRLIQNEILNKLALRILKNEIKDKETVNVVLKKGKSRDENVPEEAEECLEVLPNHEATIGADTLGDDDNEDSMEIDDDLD

Compound: Nc1ncnc2c1ncn2[C@@H]1O[C@H](COP(=O)(O)OP(=O)(O)O)[C@@H](O)[C@H]1O [ADP]
- X-ray crystal structure, 3.7 Å [1]: The crystal structure of the double Walker-B mutant in complex with ADP was determined

Compound: Nc1ncnc2c1ncn2[C@@H]1O[C@H](COP(=O)(O)OP(=O)(O)OP(=O)(O)O)[C@@H](O)[C@H]1O [ATP]
- coupled ATPase assay (pyruvate kinase / lactate dehydrogenase) [2]: ATPase and GFP unfolding activity of wt and ΔPS1 mutants of Ct and ScHsp104
- coupled ATPase assay (pyruvate kinase / lactate dehydrogenase) [3]: ATPase activity was determined by a coupled enzymatic reaction

Compound: CtHsp104 double Walker B mutant (natural protein)
- stoichiometry N [5]: 6

More lines, now with the values ahead:

- stoichiometry N [4]: 6
Compound: CtHsp104 catalytic inactive double Walker A mutant (natural protein)

- stoichiometry N [6]: 6
Compound: Hsp104 disaggregase from Chaetomium thermophilum, wild type (natural protein)
